Results as given in US11066369B2, “N-(pyridin-2-yl)pyridine-sulfonamide derivatives and their use in the treatment of disease” (Novartis AG, priority 2016, dated 2021).
Counter-ions that a name gives are not always drawn.

Columns and labels:
[1] = target: T1, horseradish peroxidase (HRP) tagged delF508-CFTR (Homo sapiens, UniProt P13569, DEL508-508); experiment: Measurement of delF508-CFTR-HRP surface expression in CFBE41o- cells; format: cell-based; conditions: delF508-CFTR-HRP surface expression, CFBE41o- cells; for EC50: read-out: DelF508-CFTR-HRP EC50; for Emax: read-out: DelF508-CFTR-HRP Amax %;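 as to DelF508-CFTR-HRP Amax %: percent efficacy relative to reference corrector lumacaftor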
T1 construct: expressed in transfected cells
Procedure, shortened: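 Surface-trafficked delF508-CFTR detected via extracellular HRP tag, read as luminescence from a membrane-impermeant substrate in CFBE41o- cells. Cells pre-induced 48h with 500 ng/mL doxycycline, then exposed 24h at 37° C to a 10-point, 3-fold dilution series from 10 μM (DMSO ≤0.5%). Triplicate dose-responses fitted logistically for EC50 after per-plate normalization; fold change versus reference compound.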

[2] = target: T2, delF508-CFTR (Homo sapiens, UniProt P13569, DEL508-508); experiment: Measurement of delF508-CFTR functional activity in primary human bronchial epithelial cells (HBECs) using Multi-Transepithelial Clamp Circuit (MTECC-24) assay; format: cell-based; conditions: primary CF HBECs; for MTECC24 CFHBEC- Amax %: test compound added 24h before assay plus potentiator, relative to reference combination (2 μM corrector + 0.5 μM potentiator); for EC50: test compound added 24h before assay, in the presence of potentiator, mean of at least two replicates, read-out: MTECC24 CFHBEC- EC50
T2 construct: functional activity of the CFTR channel (Chloride ion transport) in patient derived primary human bronchial epithelial cells; host or cells: patient-derived primary human bronchial epithelial cells (delF508-CFTR)
Procedure, shortened: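 Compound tested as 10-point, 1-in-3 concentration response (0.1% or 0.2% DMSO), 24 h basolateral pre-incubation, then re-added to both sides. MTECC-24 measured Ieq in ALI-differentiated primary delF508 bronchial cells after amiloride, forskolin activation, potentiator and INH-172 block; data normalized to DMSO baseline, EC50 fitted.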

T2 sequence (P13569 with tags, fused parts or gaps DEL508-508): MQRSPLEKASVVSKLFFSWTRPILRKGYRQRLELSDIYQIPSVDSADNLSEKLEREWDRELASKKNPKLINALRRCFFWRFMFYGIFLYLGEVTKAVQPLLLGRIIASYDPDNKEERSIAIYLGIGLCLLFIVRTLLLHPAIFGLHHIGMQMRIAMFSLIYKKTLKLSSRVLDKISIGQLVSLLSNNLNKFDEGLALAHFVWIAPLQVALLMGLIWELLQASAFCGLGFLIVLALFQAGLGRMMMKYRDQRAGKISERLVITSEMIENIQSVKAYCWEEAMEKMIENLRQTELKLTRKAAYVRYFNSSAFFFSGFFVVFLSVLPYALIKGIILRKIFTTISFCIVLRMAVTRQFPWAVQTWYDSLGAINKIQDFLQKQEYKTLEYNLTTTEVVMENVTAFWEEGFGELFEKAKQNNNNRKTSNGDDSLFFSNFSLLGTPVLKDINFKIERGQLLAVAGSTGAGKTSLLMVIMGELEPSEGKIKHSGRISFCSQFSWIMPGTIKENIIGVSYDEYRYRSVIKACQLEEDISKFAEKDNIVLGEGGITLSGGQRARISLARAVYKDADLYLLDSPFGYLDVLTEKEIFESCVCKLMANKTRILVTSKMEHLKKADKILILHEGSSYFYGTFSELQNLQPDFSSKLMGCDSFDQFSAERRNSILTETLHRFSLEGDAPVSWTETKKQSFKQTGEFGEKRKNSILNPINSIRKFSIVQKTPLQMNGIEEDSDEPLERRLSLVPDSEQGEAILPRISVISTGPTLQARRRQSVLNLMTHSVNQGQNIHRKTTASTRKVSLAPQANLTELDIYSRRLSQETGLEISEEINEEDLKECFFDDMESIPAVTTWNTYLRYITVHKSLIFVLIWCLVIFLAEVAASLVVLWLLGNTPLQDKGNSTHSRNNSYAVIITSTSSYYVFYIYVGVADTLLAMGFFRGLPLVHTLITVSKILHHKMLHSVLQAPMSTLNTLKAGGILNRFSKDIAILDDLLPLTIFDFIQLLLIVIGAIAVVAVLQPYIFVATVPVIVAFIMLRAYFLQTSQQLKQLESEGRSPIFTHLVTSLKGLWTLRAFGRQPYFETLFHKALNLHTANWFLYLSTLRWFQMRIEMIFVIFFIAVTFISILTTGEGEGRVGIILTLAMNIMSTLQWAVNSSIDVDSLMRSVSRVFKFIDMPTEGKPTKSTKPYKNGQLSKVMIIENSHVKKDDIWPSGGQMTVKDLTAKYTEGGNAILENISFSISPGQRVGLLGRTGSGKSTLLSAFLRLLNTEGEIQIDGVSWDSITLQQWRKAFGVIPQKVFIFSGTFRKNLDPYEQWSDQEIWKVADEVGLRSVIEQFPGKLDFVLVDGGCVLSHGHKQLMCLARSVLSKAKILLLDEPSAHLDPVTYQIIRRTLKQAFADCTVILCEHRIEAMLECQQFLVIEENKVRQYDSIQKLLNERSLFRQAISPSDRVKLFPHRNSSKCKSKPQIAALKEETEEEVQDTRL
T1 sequence (P13569 with tags, fused parts or gaps DEL508-508): as above

SMILES	EC50 [1]	MTECC24 CFHBEC- Amax % [2]	EC50 [2]	Emax [1]
CC(C)c1ccccc1-c1nc(NS(=O)(=O)c2cccc(N3CCC[C@@H](C(=O)O)C3)n2)ccc1C(F)(F)F [Example 375, (R)-1-(6-(N-(6-(2-isopropylphenyl)-5-(trifluoromethyl)pyridin-2-yl)sulfamoyl)pyridin-2-yl)piperidine-3-carboxylic Acid]	1210 nM	63.5%	0.682 nM	
COc1ccc(Cl)c(-c2nc(NS(=O)(=O)c3cccc(N4CC(O)C4)n3)ccc2C(F)(F)F)c1 [Example 226, N-(6-(2-chloro-5-methoxyphenyl)-5-(trifluoromethyl)pyridin-2-yl)-6-(3-hydroxyazetidin-1-yl)pyridine-2-sulfonamide]	2400 nM	83.5%	12.9 nM	721%
Cc1ccc(F)cc1-c1nc(NS(=O)(=O)c2cccc(N3CCC(C)(C(=O)O)CC3)n2)ccc1C(F)(F)F [Example 262, 1-(6-{[6-(5-fluoro-2-methylphenyl)-5-(trifluoromethyl)pyridin-2-yl]sulfamoyl}pyridin-2-yl)-4-methylpiperidine-4-carboxylic Acid]	2290 nM	81.2%	14 nM	628%
O=S(=O)(Nc1ccc(Cl)c(-c2ccccc2C(F)(F)F)n1)c1cccc(N[C@H]2COC[C@@H]2O)n1 [Example 125, N-(5-chloro-6-(2-(trifluoromethyl)phenyl)pyridin-2-yl)-6-(((3S,4R)-4-hydroxytetrahydrofuran-3-yl)amino)pyridine-2-sulfonamide]	1940 nM	67.5%	47.5 nM	215%
CN[C@@H]1CCN(c2cccc(S(=O)(=O)Nc3ccc(C(F)(F)F)c(-c4ccccc4C)n3)n2)C1 [Example 121, (R)-6-(3-(methylamino)pyrrolidin-1-yl)-N-(6-(o-tolyl)-5-(trifluoromethyl)pyridin-2-yl)pyridine-2-sulfonamide Hydrochloride]	3450 nM	79.6%	164 nM	308%
Cc1cccc(C)c1-c1nc(NS(=O)(=O)c2cccc(N)n2)ccc1Br [Example 3, 6-amino-N-(5-bromo-6-(2,6-dimethylphenyl)pyridin-2-yl)pyridine-2-sulfonamide]	1440 nM	60.3%	1.9 nM	688%
CC1(C(=O)O)CCN(c2cccc(S(=O)(=O)Nc3ccc(C(F)(F)F)c(-c4ccccc4N4CCOCC4)n3)n2)CC1 [Example 343, 4-methyl-1-(6-(N-(6-(2-morpholinophenyl)-5-(trifluoromethyl)pyridin-2-yl)sulfamoyl)pyridin-2-yl)piperidine-4-carboxylic Acid]	2150 nM	65.3%	86.1 nM	197%
Cc1c(F)cccc1-c1nc(NS(=O)(=O)c2ccnc(N3CC(O)C3)c2)ccc1Cl [Example 323, N-(5-chloro-6-(3-fluoro-2-methylphenyl)pyridin-2-yl)-2-(3-hydroxyazetidin-1-yl)pyridine-4-sulfonamide]	2770 nM	67.7%	147 nM	252%
Nc1cccc(S(=O)(=O)Nc2ccc(C(F)(F)F)c(-c3ccccc3Cl)n2)n1 [Example 17, 6-amino-N-(6-(2-chlorophenyl)-5-(trifluoromethyl)pyridin-2-yl)pyridine-2-sulfonamide]	2090 nM	69.5%	5.1 nM	510%
Cc1ccc(F)cc1-c1nc(NS(=O)(=O)c2cccc(N3CCN[C@H](CO)C3)n2)ccc1C(F)(F)F [Example 175, (S)—N-(6-(5-fluoro-2-methylphenyl)-5-(trifluoromethyl)pyridin-2-yl)-6-(3-(hydroxymethyl)piperazin-1-yl)pyridine-2-sulfonamide Hydrochloride]	3270 nM	63.4%	281 nM	530%
CO[C@H]1CCNC[C@H]1Nc1cccc(S(=O)(=O)Nc2ccc(C(F)(F)F)c(-c3ccccc3C)n2)n1 [Example 106, 6-(((3R,4S)-4-methoxypiperidin-3-yl)amino)-N-(6-(o-tolyl)-5-(trifluoromethyl)pyridin-2-yl)pyridine-2-sulfonamide Hydrochloride]	2580 nM	106.4%	79.5 nM	912%
Cc1ccc(F)cc1-c1nc(NS(=O)(=O)c2cccc(N3CCN[C@@H](CO)C3)n2)ccc1C(F)(F)F [Example 174, (R)—N-(6-(5-fluoro-2-methylphenyl)-5-(trifluoromethyl)pyridin-2-yl)-6-(3-(hydroxymethyl)piperazin-1-yl)pyridine-2-sulfonamide Hydrochloride]	2640 nM	57.1%	207 nM	515%
Cc1cccc(C)c1-c1nc(NS(=O)(=O)c2cccc(N3CCNCC3=O)n2)ccc1Cl [Example 192, N-(5-chloro-6-(2,6-dimethylphenyl)pyridin-2-yl)-6-(2-oxopiperazin-1-yl)pyridine-2-sulfonamide hydrochloride]	2520 nM	42.3%	16.1 nM	279%
Cc1ccc(F)cc1-c1nc(NS(=O)(=O)c2cccc(N3CC(O)(CO)C3)n2)ccc1Cl [Example 235, N-(5-chloro-6-(5-fluoro-2-methylphenyl)pyridin-2-yl)-6-(3-hydroxy-3-(hydroxymethyl)azetidin-1-yl)pyridine-2-sulfonamide]	1970 nM	57.6%	182 nM	203%
Cc1ccccc1-c1nc(NS(=O)(=O)c2cccc(N3CCC4(CCC(CO)[C@H]4N)CC3)n2)ccc1C(F)(F)F (stereo partly drawn) [Example 307, 6-((1R)-1-amino-2-(hydroxymethyl)-8-azaspiro[4.5]decan-8-yl)-N-(6-(o-tolyl)-5-(trifluoromethyl)pyridin-2-yl)pyridine-2-sulfonamide]	3760 nM	61.5%	45.8 nM	259%
Cc1cccc(C)c1-c1nc(NS(=O)(=O)c2cccc(N3CCC(C)(C(=O)O)CC3)n2)ccc1C(F)(F)F [Example 265, 1-(6-{[6-(2,6-dimethylphenyl)-5-(trifluoromethyl)pyridin-2-yl]sulfamoyl}pyridin-2-yl)-4-methylpiperidine-4-carboxylic Acid]	1830 nM	53.1%	13.4 nM	879%
Cc1c(-c2nc(NS(=O)(=O)c3cccc(N)n3)ccc2Cl)cccc1C(F)(F)F [Example 34, 6-amino-N-(5-chloro-6-(2-methyl-3-(trifluoromethyl)phenyl)pyridin-2-yl)pyridine-2-sulfonamide]	2520 nM	58.2%	11.6 nM	400%
Cc1ccc(F)cc1-c1nc(NS(=O)(=O)c2cccc(N[C@@H]3CCOC[C@H]3O)n2)ccc1Cl [Example 273, N-[5-chloro-6-(5-fluoro-2-methylphenyl)pyridin-2-yl]-6-{[(3S,4R)-3-hydroxyoxan-4-yl]amino}pyridine-2-sulfonamide]	1380 nM	70.9%	6.4 nM	
O=S(=O)(Nc1ccc(Cl)c(-c2ccccc2Cl)n1)c1cccc(N2CC(O)C2)n1 [Example 227, N-(5-chloro-6-(2-chlorophenyl)pyridin-2-yl)-6-(3-hydroxyazetidin-1-yl)pyridine-2-sulfonamide]	2670 nM	104.9%	49.1 nM	403%
CCCC1(C(=O)O)CCCN(c2cccc(S(=O)(=O)Nc3ccc(C(F)(F)F)c(-c4ccccc4CC)n3)n2)C1 (centres unmarked) [Example 352, 1-(6-{[6-(2-ethylphenyl)-5-(trifluoromethyl)pyridin-2-yl]sulfamoyl}pyridin-2-yl)-3-propylpiperidine-3-carboxylic Acid]	699 nM	82.2%	0.808 nM	714%
CCc1ccccc1-c1nc(NS(=O)(=O)c2cccc(N3CCC[C@H](C(=O)O)C3)n2)ccc1C(F)(F)F [Example 370, (S)-1-(6-(N-(6-(2-ethylphenyl)-5-(trifluoromethyl)pyridin-2-yl)sulfamoyl)pyridin-2-yl)piperidine-3-carboxylic Acid]	1470 nM	105.9%	0.85 nM	601%
O=S(=O)(Nc1ccc(C(F)(F)F)c(-c2ccccc2Cl)n1)c1cccc(N2CCNCC2)n1 [Example 150, N-(6-(2-chlorophenyl)-5-(trifluoromethyl)pyridin-2-yl)-6-(piperazin-1-yl)pyridine-2-sulfonamide hydrochloride]	3510 nM	64.4%	97.3 nM	180%
